In paper PMC10605077, “In Vitro and In Silico Antiviral Activity of Di-Halogenated Compounds Derived from L-Tyrosine against Human Immunodeficiency Virus 1 (HIV-1)” (Current Issues in Molecular Biology, 2023):
“Also recorded” adds a separate entry of the source. Where two headings read alike, the source gives them in different places.

Legend:
HIV-1 BaL (R5) = test: Anti-HIV activity in infected TZM-bl cells (luciferase), pre- and post-infection treatment; type: cell-based, Human Immunodeficiency Virus Type 1 (HIV-1); conditions: for inhibition at 18 µM / inhibition at 37 µM / inhibition at 75 µM / inhibition at 150 µM / inhibition at 300 µM: read-out: Percentage inhibition of HIV-1 BaL replication; for anti-HIV activity against R5 strain in words: HIV-1 BaL
Procedure: (§1) TZM-bl cells were plated in a flat-bottom 96-well plate (Corning Inc., Corning, New York, NY, USA) at the concentration of 1.2 × 10^5 cells/well and incubated for 24 h at 37 °C before the addition or not of each compound at non-cytotoxic concentrations (pre-infection treatment). Then, 1 h later the treatment was removed, and the infection was performed by adding 10 ng/mL of HIV-1IIIB p24 (X4) or 2 ng/mL of HIV-1 BaL (R5). After 3 h, the virus was removed and washed, and the compound dilutions were added again (post-infection treatment). Additionally, three wells were left for the negative control (cells without treatment or infection), the positive control of infection (cells infected with the virus without treatment), and the positive control of inhibition (AZT). Antiviral activity was quantified 48 h after treatment by measuring luciferase activity, which is directly proportional to the number of infectious virus particles in the sample [23]. The luciferase activity was quantified via luminescence emitted by the cells using Bright-GloTM Luciferase Assay System (Promega Corp., Madison, WI, USA), following the manufacturer’s instructions. Briefly, 100 μL of the reagent was added to 100 μL of TZM-bl cells and incubated for at least 2 min, protected from light. Relative light units (RLUs) were measured using the multi-mode plate reader (Thermo ScientificTM VarioskanTM LUX). Each experimental condition was performed in triplicate in two independent experiments (n = 6). The percentage inhibition was calculated as follows: 100 − (RLU of treated cells − RLU of uninfected cells/RLU of infection control − RLU of uninfected cells) × 100.

HIV-1IIIB (X4) = test: as above; type: cell-based, Human Immunodeficiency Virus Type 1 (HIV-1); conditions: for inhibition at 18 µM / inhibition at 37 µM / inhibition at 75 µM / inhibition at 150 µM: Human immunodeficiency virus 1, TZM-bl, read-out: Percentage inhibition of HIV-1IIIB (X4 strain) replication; for anti-HIV activity against X4 strain in words: HIV-1IIIB
Procedure: as §1

MTT cytotoxicity assay = type: cell-based; conditions: human; TZM-bl cells, MTT, 48 h
Procedure: The in vitro cytotoxic effect of the di-halogenated compounds on TZM-bl cells was determined with the MTT (3-(4,5-Dimethylthiazol-2-yl)-2,5-diphenyltetrazolium bromide) assay (Sigma-Aldrich, St. Louis, MO, USA). For this purpose, 1.2 × 10^5 cells/well were seeded in 96-well plates, which were incubated at 37 °C and 5% CO2 for 24 h. DMEM was used as a negative control and serial two-fold dilutions of the compounds were performed at 9.37 to 300 μM in DMEM supplemented with 5% FBS. A total of 100 μL/well of each dilution was added and incubated for 48 h. Subsequently, the cells were washed 2 times with 1X PBS, and 30 μL of MTT solution (2 mg/mL) was added and incubated for 2 h at 37 °C, in a light-protected culture. Then, 100 µL of DMSO was added to dissolve the formazan crystals, placed in shaking for 15 min, and absorbance reading was performed at 570 nm, using the Microplate Spectrophotometer (Thermo Scientific™ Multiskan™ GO, Waltham, MA, USA). Two independent experiments evaluated each experimental condition in quadruplicate (n = 8). The percentage of viability was calculated concerning the absorbance of the controls without a compound (100% viability). The 50% cytotoxic concentration was defined as the concentration of each compound that can reduce cell viability to 50% of the untreated cell control. CC50 was calculated and analyzed with GraphPad Prism version 8.0.1 (GraphPad Software, Inc., San Diego, CA, USA).

[1] = Viability assay of PBMC, flow cytometry with viability dye; type: cell-based, Human; conditions: human, PBMC stimulated with PHA and IL-2; all concentrations tested (18.75 μM up to 150 μM), 7 days; read-out: viability level on PBMCs
Procedure: PBMCs were thawed and let in the culture in RPMI with 10% fetal bovine serum (FBS) (Gibco, Grand Island, NY, USA) for 24 h before each experiment. Cells were stimulated for 48 h with 8 μg/mL of Phytohemagglutinin-PHA (Sigma-Aldrich, St. Louis, MO, USA) and 50 UI/mL of IL-2 (Peprotech, Rocky Hill, CT, USA). In the presence of various concentrations of di-halogenated compounds derived from L-Tyrosine, 2 × 10^5 cells per well were treated and resuspended in 200 µL of fresh medium with 20 UI/mL of IL-2 and incubated in 96-well culture plates for 7 days. After 7 days post-treatment, cell viability was determined using flow cytometry. Briefly, cells were stained with fixable viability dye eFluor 506 (eBioscience, Leicestershire, UK) as detailed in the manufacturer’s protocol for 30 min in the dark. Later, cells were washed and resuspended in PBS, and the percentage of viable cells was measured instead in the LS Fortessa cytometer (BD Biosciences, Franklin Lakes, NJ, USA). Data were analyzed using FlowJo version 10.5.3 (FlowJo, LLC, Ashland, OR, USA).

[2] = test system: HIV-GFP-VSV-G reporter virus; test: microbe, parasite or virus in culture; type: cell-based, HIV-1
[3] = Human immunodeficiency virus 1, BAL, 18 µM, TZM-bl cells
[4] = Human immunodeficiency virus 1, BAL, 37 µM, TZM-bl cells
[5] = Human immunodeficiency virus 1, BAL, 75 µM, TZM-bl cells
[6] = Human immunodeficiency virus 1, BAL, 150 µM, TZM-bl cells
[7] = Human immunodeficiency virus 1, BAL, TZM-bl
[8] = Human immunodeficiency virus 1, BAL, TZM-bl cells

Structure (SMILES) | inhibition at 37 µM (HIV-1 BaL (R5); [4]) [%] | inhibition at 75 µM (HIV-1 BaL (R5); [5]) [%] | inhibition at 150 µM (HIV-1 BaL (R5); [6]) [%] | inhibition at 18 µM (HIV-1IIIB (X4); 18 µM, TZM-bl cells) [%] | inhibition at 37 µM (HIV-1IIIB (X4); 37 µM, TZM-bl cells) [%] | inhibition at 75 µM (HIV-1IIIB (X4); 75 µM, TZM-bl cells) [%] | inhibition at 150 µM (HIV-1IIIB (X4); 150 µM, TZM-bl cells) [%] | anti-HIV activity against R5 strain in words (HIV-1 BaL (R5); TZM-bl cells) | inhibition at 18 µM (HIV-1 BaL (R5); [7]) [%] | inhibition at 37 µM (HIV-1 BaL (R5); [7]) [%] | inhibition at 75 µM (HIV-1 BaL (R5); [7]) [%] | inhibition at 150 µM (HIV-1 BaL (R5); [7]) [%] | anti-HIV activity against X4 strain in words (HIV-1IIIB (X4); TZM-bl cells) | inhibition at 18 µM (HIV-1IIIB (X4)) [%] | inhibition at 37 µM (HIV-1IIIB (X4)) [%] | inhibition at 75 µM (HIV-1IIIB (X4)) [%] | inhibition at 150 µM (HIV-1IIIB (X4)) [%] | other results
COc1c(Cl)cc(CC[N+](C)(C)C)cc1Cl [YODC-3M] | -7.7 | -1 | -1.3 | 3.2 | -5.8 | -8.6 | 0.5 |  |  |  |  |  |  |  |  |  |  | inhibition at 18 µM (HIV-1 BaL (R5); [3]): -19.7%
CN(C)CCc1cc(Cl)c(O)c(Cl)c1 [YDC-2M] |  |  |  |  |  |  |  | had no activity | -4.1 | 8.8 | 19.1 | -2.8 | had no activity | 15.1 | -22 | 22.6 | 29.1 | 
CN(C)CCc1cc(Br)c(O)c(Br)c1 [YDB-2M] |  |  |  |  |  |  |  | had no antiviral activity; also recorded: did not show significant anti-HIV activity | 26.1 | 2.7 | 7 | -45.8 | had no antiviral activity | 14.6 | -7 | 9.8 | -20.7 | 
COc1c(Cl)cc(C[C@@H](C(=O)O)[N+](C)(C)C)cc1Cl [TODC-3M] | 54.9 | 37.6 | 46.7 | -1.3 | -6.9 | 26.7 | 14.9 |  |  |  |  |  |  |  |  |  |  | CC50 at 48 h (MTT cytotoxicity assay): 74.9 µM; viability at 7 days [1]: > 90%; inhibition at 300 µM (HIV-1 BaL (R5); [8]): 59.9%; percentage inhibition of HIV-GFP-VSV-G replication [2]: 19.5%
COc1c(Cl)cc(CCN(C)C)cc1Cl [YODC-2M] |  |  |  |  |  |  |  |  | 24.5 | 12.2 | 26.9 | -96.2 |  | -0.3 | 2.3 | -2.2 | 2.5 | 
CN(C)[C@@H](Cc1cc(Cl)c(O)c(Cl)c1)C(=O)O [TDC-2M] | 33 | 37.9 | 32.3 | -4.8 | -15.4 | -39.5 | -72.2 | showed antiviral activity |  |  |  |  | no antiviral activity |  |  |  |  | CC50 at 48 h (MTT cytotoxicity assay): ~174 µM; IC50 (HIV-1 BaL (R5); Human immunodeficiency virus 1, BAL, TZM-bl, 48 h, HIV-1 BaL (R5), TZM-bl cells, luciferase): 141 µM; inhibition at 300 µM (HIV-1 BaL (R5); [8]): 47.3%; SI (HIV-1 BaL (R5); selectivity index against HIV-1 BaL (CC50 and IC50 of Table 3)): ~1.24
CN(C)[C@@H](Cc1cc(Br)c(O)c(Br)c1)C(=O)O [TDB-2M] | -45.5 | -19.2 | -51.9 | -1.3 | 15.9 | -2.9 | 2.9 | did not inhibit the replicative activity |  |  |  |  | did not inhibit the replicative activity |  |  |  |  | inhibition at 18 µM (HIV-1 BaL (R5); [3]): -57.9%
